Data as given in patent publication US8748601B2, “Selective serine/threonine kinase inhibitors” (The Regents of the University of California, priority 2003, dated 2014).
Blank lines part the entries; values can stand above or below the molecule they belong to.

How the values were obtained:
Rsk2 [1] = experiment: Labeling by biotin-1 / bodipy-1 in Xenopus egg cytosol and competition by unlabeled compound; format: binding; conditions: for Labeling of 90 kD protein by bodipy-1 after pretreatment: pretreatment with 1 μM
Description: To test whether compounds 1 and 2 (Formula IA, chloromethyl ketone and methyl enoate respectively) bind selectively and irreversibly to Rsk2, compound 1 was labeled with biotin. Xenopus egg cytosol was treated with 1 μM biotin-1. A major biotinylated 90 kD protein was detected by immunoblot analysis with streptavidin-HRP. Labeling of p90 with biotin-1 was abolished by pretreatment of the cytosol 1 μM of unlabeled 1. Thus, p90 is completely saturated by 1 at a concentration of 1 μM.
Labeling was abolished by pretreatment with 1 μM of 1 or 2.

Rsk = Rsk autophosphorylation of Ser381 in Swiss 3T3 cells (Western blot); format: cell-based; conditions: 5 μM, 1 hour, growth factors 10 min
Description: (§1) Enoate 2 blocks Rsk autophosphorylation of Ser381, which is catalyzed by its cysteine-containing C-terminal kinase domain. […] Swiss 3T3 cells were serum starved for 24 hours and treated with 5 μM enoate or 0.1% DMSO (control) for 1 hour. The cells were then stimulated with growth factors for 10 min. and lysed with 1×SDS-PAGE sample buffer. Proteins were separated by SDS-PAGE and transferred to nitrocellulose membranes for Western blot analysis. Phosphorylation-specific antibodies against Rsk and Erk were purchased from Cell Signaling. Antibodies against nonphosphorylated Rsk and Erk were purchased from Santa Cruz Biotech and Cell Signaling, respectively. (FIG. 4.)

Erk = Erk phosphorylation in Swiss 3T3 cells (Western blot); format: cell-based; conditions: 5 μM, 1 hour, growth factors 10 min
Description: as §1

animal carcinoma model = conditions: compared with reversible quinazoline inhibitors; cited from earlier work
V281C v-Src (v-Src-es1) [2] = experiment: Covalent labeling by biotin-cmk in NIH3T3 fibroblasts expressing v-Src-es1; format: cell-based; conditions: biotin-cmk 2 μM, whole cell lysates
Excerpt: (§2) To test whether cmk 4 could covalently label and inhibit Src kinases in vivo, we generated NIH3T3 fibroblast cell lines that stably overexpress either a wt v-Src allele or an electrophile-sensitive mutant, V281C v-Src (v-Src-es1). v-Src is constitutively active, and as a result of its expression in these cells, there is a substantial increase in phosphotyrosine levels. […] To test whether cmk 4 forms an irreversible, covalent bond with V281C v-Src, we conjugated biotin to the hydroxypropyl substituent. This point of attachment was chosen based on the model of cmk 4 bound to Hck in which the hydroxypropyl substituent is pointing out into solution.
(§3) NIH3T3 fibroblasts expressing either v-Src-es1 or v-Src were pretreated with increasing concentrations of cmk 4. Whole cells lysates were then prepared and treated with biotin-cmk (2 μM).

wt v-Src [3] = experiment: Covalent labeling by biotin-cmk in NIH3T3 fibroblasts expressing wt v-Src; format: cell-based; conditions: biotin-cmk 2 μM, whole cell lysates
Excerpt: as §2, §3

V281C v-Src (v-Src-es1) [4] = target: T1, V281C v-Src (v-Src-es1) (UniProt P00524, V281C, species not given); experiment: Covalent labeling by biotin-cmk in NIH3T3 fibroblasts expressing v-Src-es1; format: cell-based
T1 construct: other: pretreatment of intact cells; lysates treated with biotin; Labeling of v-Src-es1 by biotin-cmk after pretreatment; other: pretreatment of intact cells with 1 μM
Excerpt: as §2, §3

v-Src-es1 = experiment: Global phosphotyrosine levels in NIH3T3 cells expressing v-Src-es1; format: cell-based
Excerpt: (§4) We also investigated whether cmk 4 could block the function of v-Src-es1 in mammalian cells by monitoring global phosphotyrosine levels in cells expressing either wt v-Src or v-Src-es1.

wt v-Src [5] = experiment: Global phosphotyrosine levels in NIH3T3 cells expressing wt v-Src; format: cell-based
Excerpt: as §4

[6] = system: NIH3T3 cells expressing v-Src-es1; experiment: Reversion of transformed morphology in cells expressing v-Src-es1; format: cell-based; conditions: 1 μM, 16 h
Excerpt: (§5) Overexpression of v-Src in NIH3T3 fibroblasts causes morphological transformation. Nontransformed NIH3T3 cells have a flat morphology, characterized by long bundles of filamentous actin (“stress fibers”) that can be visualized by fluorescence microscopy. In contrast, NIH3T3 cells overexpressing wt v-Src or v-Src-es1 have a disorganized actin cytoskeleton that results in a round morphology. […] Under the same conditions, cells expressing wt v-Src are not affected by cmk 4 and maintain a round morphology (FIG. 8A). The effects of cmk 4 on cell morphology were quantified by counting 100-200 cells under each treatment condition for both wt v-Src and v-Src-es1. Approximately 80% of the cells expressing v-Src-es1 regain a flattened morphology upon treatment with 1 μM cmk 4, whereas less than 2% of cells expressing wt v-Src have actin stress fibers (FIG. 8B).

[7] = system: NIH3T3 cells expressing wt v-Src; experiment: Reversion of transformed morphology in cells expressing wt v-Src; format: cell-based; conditions: 1 μM, 16 h
Excerpt: as §5

Rsk2 CTD [8] = target: T2, Rsk2 CTD (Homo sapiens, UniProt P51812); experiment: Rsk2 CTD in vitro kinase assay, wild type; format: biochemical
T2 construct: We tested the halomethylketones against the Rsk2 CTD by adapting an in vitro kinase assay; made in house
Excerpt: (§6) We tested the halomethylketones against the Rsk2 CTD by adapting an in vitro kinase assay developed by Chrestensen and Sturgill, J, Biol. Chem. 277:27733 (2002).

Val285Cys Fyn = Val285Cys Fyn (Homo sapiens, UniProt P06241, V285C); experiment: Inactivation of engineered Val285Cys Fyn; format: biochemical
wt Fyn = wt Fyn (Homo sapiens, UniProt P06241); experiment: wt Fyn kinase activity in vitro; conditions: 30 nM
Rsk2 CTD Cys436Val = target: T3, Rsk2 CTD Cys436Val (Homo sapiens, UniProt P51812, C436V); experiment: Rsk2 CTD in vitro kinase assay, Cys436Val mutant; format: biochemical
T3 construct: we expressed and purified two CTD mutants, Cys436Val and Thr493Met; made in house
Excerpt: as §6

Rsk2 CTD Thr493Met = target: T4, Rsk2 CTD Thr493Met (Homo sapiens, UniProt P51812, T493M); experiment: Rsk2 CTD in vitro kinase assay, Thr493Met mutant; format: biochemical
T4 construct: we expressed and purified two CTD mutants, Cys436Val and Thr493Met; made in house
Excerpt: as §6

Rsk2 CTD [9] = target: Rsk2 CTD (Chlorocebus sabaeus, UniProt A0A0D9RPY4); experiment: EGF-stimulated Ser386 phosphorylation in COS-7 cells; format: cell-based; conditions: read-out: Reduction of Ser386 phosphorylation
Excerpt: (§7) The only known Rsk2 CTD substrate is an autophosphorylation site, Ser386, in the linker region connecting the NTD and CTD. Phosphorylation of Ser386 creates a docking site for another kinase, phosphoinositide-dependent kinase 1 (PDK1), which phosphorylates and activates the NTD. […] The signaling pathway between EGF and Erk1/2 involves at least three protein kinases (EGFR, Raf, and MEK), two of which (EGFR and Raf) have threonine gatekeepers and cysteines in their ATP binding pockets (albeit at different locations relative to Rsk2 Cys436).

Erk1/2 = experiment: EGF-stimulated Erk1/2 phosphorylation (Thr202, Tyr204) in COS-7 cells; format: cell-based; conditions: 10 μM
Excerpt: as §7

Rsk1 = target: T5, Rsk1 (Homo sapiens, UniProt Q15418); experiment: Suppression of labeling by biotinylated fmk in human epithelial cell lysate, Rsk1; format: binding; conditions: pretreatment with unlabeled compound
T5 construct: a crude lysate prepared from human epithelial cells; endogenous in cells
Excerpt: A major concern with any pharmacological agent is its selectivity, not only among related family members, but among all other coexpressed proteins. To determine the global kinetic selectivity of fmk 5, we added a biotinylated derivative to a crude lysate prepared from human epithelial cells. Only two proteins in the lysate were labeled. […] Affinity purified antibodies raised against a Rsk1 peptide specifically immunoprecipitated the lower band, whereas a Rsk2 monoclonal antibody was specific for the upper band. Both proteins remained in the supernatant when a control rabbit IgG was used.

Rsk2 [10] = target: Rsk2 (Homo sapiens, UniProt P51812); experiment: Suppression of labeling by biotinylated fmk in human epithelial cell lysate, Rsk2; format: binding; conditions: pretreatment with unlabeled compound
Excerpt: A major concern with any pharmacological agent is its selectivity, not only among related family members, but among all other coexpressed proteins.

Chemical stability = format: physicochemical; conditions: compared with cmk 4

Structure (SMILES): C=CC(=O)Nc1ccc2ncnc(Nc3cccc(Br)c3)c2c1 [PD 168393]
- Efficacy in an animal carcinoma model (animal carcinoma model): far superior to reversible quinazoline inhibitors

Structure (SMILES): Cc1ccc(-c2c(C(=O)CCl)n(CCCOC(=O)NCCCCNC(=O)CCCCC3SCC4NC(=O)NC43)c3ncnc(N)c23)cc1 (stereo not drawn) [biotin-cmk]
- Covalent labeling of v-Src-es1 (V281C v-Src (v-Src-es1) [2]): covalently targeted v-Src-es1
- Covalent labeling of wt v-Src (wt v-Src [3]): absence of covalent labeling

Structure (SMILES): Cc1ccc(-c2c(C(=O)CCl)n(CCCO)c3ncnc(N)c23)cc1 [cmk 4]
- Concentration at which p90 is completely saturated (Rsk2 [1]; Xenopus egg cytosol): 1 µM
- Labeling of p90 with biotin-1 after pretreatment with unlabeled compound (Rsk2 [1]; pretreatment of the cytosol 1 μM, streptavidin-HRP immunoblot): abolished
- Labeling of 90 kD protein by bodipy-1 after pretreatment (Rsk2 [1]): abolished
- Labeling of v-Src-es1 by biotin-cmk after pretreatment (V281C v-Src (v-Src-es1) [4]; pretreatment of intact cells with 1 μM): abolished
- IC50 (V281C v-Src (v-Src-es1) [4]; read-out: IC50 for blocking labeling of v-Src-es1 by biotin-cmk, pretreatment of intact cells, lysates treated with biotin-cmk 2 μM): < 0.1 µM
- Detectable phosphotyrosine in cells overexpressing v-Src-es1 (v-Src-es1; 1 μM): near-complete reduction
- Tyrosine phosphorylation in cells overexpressing v-Src-es1 (v-Src-es1; increasing concentrations): dose-dependent decrease
- Function of mutant v-Src in mammalian cells (v-Src-es1; summary statement): irreversibly blocked the function
- Phosphotyrosine in cells overexpressing wt v-Src (wt v-Src [5]; 1 μM): no apparent effect
- Effect on wt v-Src in mammalian cells (wt v-Src [5]; summary statement): no effect
- Cells expressing v-Src-es1 that regain a flattened morphology [6]: Approximately 80%
- Transformed morphology of cells expressing v-Src-es1 ([6]; FITC-phallodin staining): caused reversion of the transformed morphology
- Cells expressing wt v-Src that have actin stress fibers [7]: less than 2%
- Morphology of cells expressing wt v-Src [7]: not affected
- Inhibition of kinase activity of Rsk2 CTD (Rsk2 CTD [8]): potently inhibited
- Fold more potent than fmk 5 toward Val285Cys Fyn (Val285Cys Fyn): 100 fold
- Inactivation of engineered Fyn with cysteine in place of Val285 (Val285Cys Fyn; 30 nM): rapidly inactivated
- Time to inactivate Val285Cys Fyn (Val285Cys Fyn; 100 nM, 1 mM ATP): less than 5 min
- Effect on wild-type (WT) Fyn (wt Fyn): no effect

More lines, main results first:

- Labeling of 90 kD protein by bodipy-1 after pretreatment (Rsk2 [1]): abolished
Structure (SMILES): COC(=O)/C=C/c1c(-c2ccc(C)cc2)c2c(N)ncnc2n1CCCO [Compound 2]
- Rsk autophosphorylation of Ser381 (Rsk): blocks
- Erk phosphorylation (Erk): does not block

- Inhibition of kinase activity of Rsk2 CTD (Rsk2 CTD [8]): potently inhibited
- Half-time of inactivation of Rsk2 CTD (Rsk2 CTD [8]; 1 μM, 1 mM ATP): less than 10 min
- inhibition at 3 µM (Rsk2 CTD [9]): 95%
- Concentration for complete saturation of Rsk1 (Rsk1): 0.3 µM
- Concentration for complete saturation of Rsk2 (Rsk2 [10]): 1 µM
- Chemical stability (Chemical stability): greater chemical stability
Structure (SMILES): Cc1ccc(-c2c(C(=O)CF)n(CCCO)c3ncnc(N)c23)cc1 [fmk 5]
- Inhibition and covalent modification of Cys436Val mutant (Rsk2 CTD Cys436Val): resistant to inhibition and covalent modification
- Inhibition and covalent modification of Thr493Met mutant (Rsk2 CTD Thr493Met): resistant to inhibition and covalent modification
- EGF-stimulated phosphorylation of Erk1/2 Thr202 and Tyr204 (Erk1/2): no effect

- Fold weaker than fmk 5 toward WT Rsk2 (Rsk2 CTD [8]): 80 fold
- IC50 (Rsk2 CTD [8]; Rsk2 CTD WT, read-out: IC50 values, WT): 1.2 ± 0.08 µM
- Potency relative to fmk 5 against the Cys436Val mutant (Rsk2 CTD Cys436Val): much more potent than fmk 5
- IC50 (Rsk2 CTD Cys436Val; Rsk2 CTD C436V): 0.43 ± 0.14 µM
- IC50 (Rsk2 CTD Thr493Met; Rsk2 CTD mutant, read-out: IC50 values, T439M): > 30 µM
Structure (SMILES): Cc1ccc(-c2cn(CCCO)c3ncnc(N)c23)cc1 [scaffold A]
